From patent publication US6096529A, “Recombinant α-2,3-sialyltransferases and their uses” (priority 1997, dated 2000) come the findings set out here.

What all share (assay type): biochemical
For series [1], the target named is T1, purified recombinant α-2,3-sialyltransferase (Neisseria meningitidis serogroup B, UniProt P72097).
T1 construct: made in house; host or cells: E. coli BMH71-18/pNST-18
The experiment in a line: Survey of oligosaccharide acceptors (qualitative, CE or TLC). The procedure: Measurement of Sialyltransferase Activity and Survey of Oligosaccharide Acceptors--FCHASE-labelled oligosaccharides were prepared as described above, while the APTS-labelled oligosaccharides were prepared by reductive amination of reducing saccharides according to the method described by Guttman et at. […] APTS-saccharides were quantitated by measuring the A455, and using an extinction coefficient of 17160 M^-1 cm^-1 . […] For the TMR labelled acceptors we used an extinction coefficient of 80,000 M^-1 cm^-1 for quantitation. The sialyltransferase activity was routinely measured using 0.5 mM FCHASE-N-acetyllactosamine as the acceptor and the assay conditions as described above. […] Assays were monitored so that for all acceptor concentrations, no more than 10% conversion to product occurred. The ranges of acceptor and donor concentrations were determined empirically, then a range spanning 0.2Km, up to 5Km, was used to obtain the values. […]
The reaction mixtures from the FCHASE- and APTS-labelled acceptors were analyzed by capillary electrophoresis performed with a Beckman instruments (Fullerton, Calif.) P/ACE 5510 equipped with a 3 mW Argon-ion laser induced fluorescence detector, λ excitation=488 nm λ emission=520 nm. […]

Series [2] addresses T1, purified recombinant α-2,3-sialyltransferase. The experiment in a line: Enzymatic properties of the purified recombinant α-2,3-sialyltransferase (standard assay). The settings on record: for activity stimulated by presence: 20 mM; for inhibition at 1000 µM: 1 mM, standard assay. The procedure: (§1) Measurement of Sialyltransferase Activity and Survey of Oligosaccharide Acceptors--FCHASE-labelled oligosaccharides were prepared as described above, while the APTS-labelled oligosaccharides were prepared by reductive amination of reducing saccharides according to the method described by Guttman et at. (Anal. Biochem233:234 (1996)) The Gal-β-APTS acceptor was derived from labelling of lactose; the Gal-α-APTS acceptor was derived from labelling of melibiose; the N-acetyllactosamine (LacNAc) acceptor was synthesized by APTS labelling of chitobiose, followed by enzymatic modification with bovine β-Galactosyl transferase to produce the LacNAc moiety-, the Gal-α-1.4-Gal-β acceptor was enzymatically synthesized from β-Gal-APTS with the α-1,4-galactosyltransferase from N. meningitidis. All of the reductive amination products were purified by gel permeation chromatography on Toyopearl HW4OF (Sigma-Aldrich), 1.5 cm×15 cm column, using water as the eluant. It should be mentioned that all of these molecules have the terminal reducing sugar ring opened in the process of labelling. APTS-saccharides were quantitated by measuring the A455, and using an extinction coefficient of 17160 M^-1 cm^-1 . The TMR-labelled oligosaccharides were prepared as described by Zhao et al. (1994) Glycobiology 4:239-242. For the TMR labelled acceptors we used an extinction coefficient of 80,000 M^-1 cm^-1 for quantitation. The sialyltransferase activity was routinely measured using 0.5 mM FCHASE-N-acetyllactosamine as the acceptor and the assay conditions as described above. For measurement of Km, and kcat values, assays were performed with the APTS labelled saccharides at room temperature. Assays were monitored so that for all acceptor concentrations, no more than 10% conversion to product occurred. The ranges of acceptor and donor concentrations were determined empirically, then a range spanning 0.2Km, up to 5Km, was used to obtain the values. Data were examined using the Grafit™3.0 software package (Erithacus Software, London, UK).
(§2) The reaction mixtures from the FCHASE- and APTS-labelled acceptors were analyzed by capillary electrophoresis performed with a Beckman instruments (Fullerton, Calif.) P/ACE 5510 equipped with a 3 mW Argon-ion laser induced fluorescence detector, λ excitation=488 nm λ emission=520 nm. The Capillary was of bare silica 75 μ X 57 cm, with the detector at 50 cm. The capillary was conditioned before each run by washing with 0.2 M NaOH for 2 min., water for 2 min., and either 20 mM sodium phosphate buffer, pH 7.4 or sodium tetraborate, pH 9.3, 2 min. Samples were introduced by pressure injection for 2-5 seconds, and the separation was performed at 18 kV, 75 μA. Peak integration was performed with the Beckman PACE-Station software (version 1).

Series [3] addresses T2, N. meningitidis α-2,3-sialyltransferase (Neisseria meningitidis serogroup B, UniProt P72097). Set-up: b112 rows possibly recombinant MC58 lst (pNST-01) in E. coli extracts. As to conditions: for activity stimulated by addition: 10 mM, enzyme from N. meningitidis extracts; for ratios of activity as acceptor: synthetic saccharide acceptors, relative to FCHASE-aminophenyl-LacNAc. The procedure: Measurement of Sialyltransfrase Activity--The sialyltransferase activity from N. meningitidis MC58L3, 406Y L3 and M982B L7, and the E. coli carrying pNST plasmids was measured in toluene treated cells or cell free extracts prepared as described previously (Wakarchuk, et al. (1996) J. Biol. Chem. in Press) acceptors were derived from aminophenylglycosides reacted with 6(5-fluorescein-carboxamnido)-hexanoic acid succimidyl ester (FCHASE) and were prepared as previously described (Wakarchuk, et al. (1996) J. Biol. Chem. in Press). Reactions for the enzyme were performed at 37° C. in 20 μl of MES buffer, 50 mM pH 6.0, 10 mM MnCl2, with 0.2 or 1.0 mM labeled acceptor, 0.2 mM CMP-Neu5Ac donor and various amounts of enzyme, either from crude bacterial extracts, or extracts of recombinant E. coli with the cloned gene. The recombinant enzymes were assayed for 10-120 minutes, while extracts from N. meningitidis were incubated 1-15 h. The reactions were terminated by diluting the reaction 1:100 with 10 mM NaOH. These samples were then diluted appropriately in water prior to analysis by capillary electrophoresis.
Capillary electrophoresis (CE) and was performed with a Beckman (Fullerton, Calif.) P/ACE 5510 equipped with a 3 mW Argon-ion laser induced fluorescence detector, λ excitation=488 nm, λ emission=520 nm. The capillary was bare silica 75 μ X 47 cm, with the detector at 40 cm. The capillary was conditioned before each run by washing with 0.2 M NaOH for 2 min., water for 2 min., and 25 mM sodium tetraborate pH 9.4 for 2 min. Samples were introduced by pressure injection for 2-5 seconds, and the separation was performed at 15 kV, 75 μA. Peak integration was performed with the Beckman System Gold (version 8.1) software.
Target sequence in this assay (P72097 whole entry Q29H/E40D/N94K/T242A/K273N): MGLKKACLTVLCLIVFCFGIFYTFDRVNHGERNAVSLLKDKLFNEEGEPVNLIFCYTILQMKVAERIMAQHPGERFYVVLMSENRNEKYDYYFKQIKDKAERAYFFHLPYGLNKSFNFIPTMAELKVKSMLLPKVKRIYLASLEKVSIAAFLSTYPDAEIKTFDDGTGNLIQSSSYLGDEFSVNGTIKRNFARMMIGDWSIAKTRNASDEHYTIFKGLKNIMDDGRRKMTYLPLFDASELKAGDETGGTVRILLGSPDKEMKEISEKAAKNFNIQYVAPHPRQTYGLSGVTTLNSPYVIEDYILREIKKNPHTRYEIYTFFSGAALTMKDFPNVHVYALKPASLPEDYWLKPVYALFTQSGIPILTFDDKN

Series [4] concerns the target T2, N. meningitidis α-2,3-sialyltransferase. The experiment in a line: Coupled sialylation of FCHASE-LacNAc with Neu5Ac, Neu5Pr or Neu5Gc and CMP-Neu5Ac synthetase. The settings on record: for time to complete conversion of the acceptor (FCHASE-LacNAc): coupled reaction with CMP-Neu5Ac synthetase; for use as alternate donor, rate: compared with Neu5Ac. Set-up: made in house; host or cells: E. coli BMH71-18/pNST-18. The procedure: Sialylation of FCHASE-thio-N-acetyllactosamine with N-acetyl-, N-propionyl and N-glycolyl-Neuraminic Acid--The 50 μL reaction mixtures included […] acceptor, and 2 mM of either Neu5Ac, Neu5Gc or Neu5Pr, in 100 mM Tris pH 7.5. 0.2 mM DTT, 10 mM MgCl2, […], with 50 mU inorganic pyrophosphatase (Sigma). 47 mU CMP-Neu5Ac synthetase, 5 mU purified α-2,3-sialyl-transferase. […] The masses of the sialylated products were measured in the negative ion mode on a VG Quattro triple quadrupole mass spectrometer (Fisons Instruments).
Target sequence in this assay (P72097 2-371): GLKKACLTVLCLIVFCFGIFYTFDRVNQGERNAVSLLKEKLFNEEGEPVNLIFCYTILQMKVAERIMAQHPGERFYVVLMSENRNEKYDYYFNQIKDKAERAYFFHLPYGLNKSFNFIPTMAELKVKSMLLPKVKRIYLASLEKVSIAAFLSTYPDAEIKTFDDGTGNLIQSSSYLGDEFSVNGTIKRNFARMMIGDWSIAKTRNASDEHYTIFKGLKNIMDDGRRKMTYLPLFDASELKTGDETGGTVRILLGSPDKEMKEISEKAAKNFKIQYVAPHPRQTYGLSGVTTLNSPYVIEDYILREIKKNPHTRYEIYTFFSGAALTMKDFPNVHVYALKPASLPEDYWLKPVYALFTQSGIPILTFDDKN

The target in series [5] is T1, purified recombinant α-2,3-sialyltransferase. The experiment in a line: Determination of kinetic constants with APTS-labelled acceptors. The settings on record: for kcat IKm: apparent, APTS-labelled acceptor, CMP-Neu5Ac 200 μM. The procedure: as §1, §2

T1 sequence (P72097 2-371): as above

For the compound `O=C(CCCCCNC(=O)c1ccc(-c2c3ccc(=O)cc-3oc3cc(O)ccc23)c(C(=O)O)c1)NCCCCCCS[C@@H]1O[C@H](CO)[C@H](O)[C@H](O)[C@H]1O` [Gal-β S AH-FCHASE], in series [1], the “product formation with sulfur as the linkage atom” value is “product formation”.
Turning to `[Cl-].[Cl-].[Mg+2]` [MgCl2], the “activity stimulated by presence” value in series [2] (purified enzyme) was found to be 3 fold. The “activity stimulated by addition” value in series [3] was determined as 2 fold.
Consider `Nc1ccn([C@@H]2O[C@H](COP(=O)(O)O)[C@@H](O)[C@H]2O)c(=O)n1` [CMP], for which the inhibition at 1000 µM in series [2] worked out at 80%.
Turning to `O=C(CCCCCNC(=O)c1ccc(-c2c3ccc(=O)cc-3oc3cc(O)ccc23)c(C(=O)O)c1)Nc1ccc(OC2O[C@H](CO)[C@H](O)[C@H](O)[C@H]2O)cc1` (some centres unmarked) [FCHASE-aminophenyl-Gal], the “ratios of activity as acceptor” value in series [3] is reported as 0.03.
Turning to Triton X-100, in series [3] (Triton X-100 up to 0.2%), the “effect of detergents on the enzyme” value was “exception”.
On to `O=C(O)CN(CCN(CC(=O)O)CC(=O)O)CC(=O)O` [EDTA], for which the “activity in the presence of EDTA” value in series [2] (5 mM EDTA, purified enzyme) was “still active”; in series [3] (5 mM EDTA), “active”.
For `CC(=O)N[C@H]1[C@H]([C@H](O)[C@H](O)CO)OC(O)(C(=O)O)C[C@@H]1O` (some centres unmarked) [Neu5Ac, 5-N-acetylneuraminic acid], in series [4], the “time to complete conversion of the acceptor (FCHASE-LacNAc)” value came to 60 min.
Take `O=S(=O)(O)c1cc(NC[C@H](O)[C@@H](O)[C@H](O[C@@H]2O[C@H](CO)[C@H](O)[C@H](O)[C@H]2O)[C@H](O)CO)c2ccc3c(S(=O)(=O)O)cc(S(=O)(=O)O)c4ccc1c2c34` [Gal-β-(1→4)-Glc, Gal-β-(1→4)-Glc*]: in series [5], the “kcat IKm” value is 367 M⁻¹ s⁻¹.
Take `O=C(CCCCCNC(=O)c1ccc(-c2c3ccc(=O)cc-3oc3cc(O)ccc23)c(C(=O)O)c1)Nc1ccc(O[C@@H]2O[C@H](CO)[C@@H](O[C@@H]3O[C@H](CO)[C@H](O)[C@H](O)[C@H]3O)[C@H](O)[C@H]2O)cc1` [FCHASE-aminophenyl-Lac]: in series [3], the “ratios of activity as acceptor” value stood at 0.29.
On the same count and under the same terms, the value for `CC(=O)N[C@H]1[C@H](Oc2ccc(NC(=O)CCCCCNC(=O)c3ccc(-c4c5ccc(=O)cc-5oc5cc(O)ccc45)c(C(=O)O)c3)cc2)O[C@H](CO)[C@@H](O[C@@H]2O[C@H](CO)[C@H](O)[C@H](O)[C@H]2O)[C@@H]1O` [FCHASE-aminophenyl-LacNAc] was 1.
Turning to `CCC(=O)N[C@H]1[C@H]([C@H](O)[C@H](O)CO)OC(O)(C(=O)O)C[C@@H]1O` (some centres unmarked) [Neu5Pr, N-propionyl-Neuraminic Acid], in series [4], the “use as alternate donor, rate” value is “rates lower than with Neu5Ac” and the “time to complete conversion of the acceptor (FCHASE-LacNAc)” value amounted to 90 min.
Take `O=S(=O)(O)c1cc(NC[C@H](O)[C@@H](O)[C@H](O)[C@H](O)CO[C@H]2O[C@H](CO)[C@H](O)[C@H](O)[C@H]2O)c2ccc3c(S(=O)(=O)O)cc(S(=O)(=O)O)c4ccc1c2c34` [Gal-α-(1→6)-Gal, Gal-α-(1→6)-Gal*]: the “kcat IKm” value in series [5] turned out to be 517 M⁻¹ s⁻¹.
As to `O[C@H](CS)[C@H](O)CS` (racemic) [DTT, dithiothreitol], the “effect on the activity” value in series [2] (1-20 mM range) is reported as “no effect”.
With `O=C(CO)N[C@H]1[C@H]([C@H](O)[C@H](O)CO)OC(O)(C(=O)O)C[C@@H]1O` (some centres unmarked) [Neu5Gc, 5-N-glcolylneuraminic acid], in series [4] (after 120 min of incubation), the “conversion of the acceptor” value is recorded as “above 90%”. Besides, in series [4], the “use as alternate donor, rate” value is listed as “rates lower than with Neu5Ac”.
Turning to `CC(=O)N[C@H]1[C@H](O[C@@H]([C@H](O)[C@H](CNc2cc(S(=O)(=O)O)c3ccc4c(S(=O)(=O)O)cc(S(=O)(=O)O)c5ccc2c3c54)NC(C)=O)[C@H](O)CO)O[C@H](CO)[C@@H](O[C@@H]2O[C@H](CO)[C@H](O)[C@H](O)[C@H]2O)[C@@H]1O` [LacNAc, Gal-β-(1→4)-β-GlcNAc-β-GlcNAc*], the “kcat IKm” value in series [5] is 1750 M⁻¹ s⁻¹. In addition, the “increase of apparent Kcat/Km” value in series [5] (relative to the terminal Gal-β monosaccharide acceptor) was 5 fold.
Turning to `[Cl][Mn][Cl]` [MnCl2], the “activity stimulated by presence” value in series [2] (purified enzyme) is 4 fold. The “activity stimulated by addition” value in series [3] is 3 fold.
Regarding `CC(=O)N[C@@H]1[C@@H](O)[C@H](O[C@@H]2O[C@H](CO)[C@H](O)[C@H](O)[C@H]2O)[C@@H](CO)O[C@H]1SCCCCCCNC(=O)CCCCCNC(=O)c1ccc(-c2c3ccc(=O)cc-3oc3cc(O)ccc23)c(C(=O)O)c1` [Gal-β-(1→4)-GlcNAc-β S AH-FCHASE], the “product formation with sulfur as the linkage atom” value in series [1] is listed as “product formation”.
For the compound `Nc1ccn([C@@H]2O[C@H](COP(=O)(O)OP(=O)(O)O)[C@@H](O)[C@H]2O)c(=O)n1` [CDP], in series [2], the inhibition at 1000 µM was 40%.
Turning to `O=S(=O)(O)c1cc(NC[C@H](O)[C@@H](O)[C@H](O[C@@H]2O[C@H](CO)[C@H](O[C@H]3O[C@H](CO)[C@H](O)[C@H](O)[C@H]3O)[C@H](O)[C@H]2O)[C@H](O)CO)c2ccc3c(S(=O)(=O)O)cc(S(=O)(=O)O)c4ccc1c2c34` [P^k, Gal-α-(1→4)-Gal-(1→4)-β-Glc*], the “kcat IKm” value in series [5] turned out to be 93.3 M⁻¹ s⁻¹.
Consider `CC(=O)N[C@H]1[C@H]([C@H](O)[C@H](O)CO)O[C@](OP(=O)(O)OC[C@H]2O[C@@H](n3ccc(N)nc3=O)[C@H](O)[C@@H]2O)(C(=O)O)C[C@@H]1O` [CMP-Neu5Ac], for which the substrate inhibition result in series [5] (as high as 1 mM CMP-Neu5Ac) is “No significant substrate inhibition”.
